Key:
NCI-H522 = experiment: NCI 60 cell line screen, NCI-H522; type: cell-based; conditions: read-out: GI50 NCI-H522, NCI-H522, Lung
MDA-MB-231 = experiment: NCI-DTP 60 cell line screen, MDA-MB-231; type: cell-based; conditions: read-out: GI50 MDA-MB-231, data provided by NCI-DTP, NA=not active
IGROV-1 = experiment: NCI 60 cell line screen, IGROV-1; type: cell-based, human; conditions: read-out: GI50 IGROV-1, IGROV-1, Ovarian
U25-1 = experiment: NCI 60 cell line screen, U25-1; type: cell-based; conditions: read-out: GI50 U25-1, U25-1, CNS
HCT-116 = experiment: NCI-DTP 60 cell line screen, HCT-116; type: cell-based; conditions: read-out: GI50 HCT-116, data provided by NCI-DTP, NA=not active
DU-145 = experiment: NCI 60 cell line screen, DU-145; type: cell-based; conditions: read-out: GI50 DU-145, DU-145, Prostate
A498 = experiment: NCI 60 cell line screen, A498; type: cell-based, human; conditions: read-out: GI50 A498, A498, Renal
LOX-IMVI = experiment: NCI 60 cell line screen, LOX-IMVI; type: cell-based, human; conditions: read-out: GI50 LOX-IMVI, Melanoma
NCI 60 cell lines = experiment: NCI 60 cell line screen, single dose and overall cytotoxicity; type: cell-based
LnCap = conditions: read-out: GI50 LnCap; human prostate carcinoma cell line LnCap; cited from earlier work
HCT-116 cells = experiment: Clonogenic dose-response analysis; type: cell-based
PC-3 = conditions: read-out: GI50 PC-3; human prostate carcinoma cell line PC-3; cited from earlier work
TSU-Pr1 = conditions: read-out: GI50 TSU-Pr1; human prostate carcinoma cell line TSU-Pr1; cited from earlier work

Substance | GI50 (NCI-H522) | GI50 (MDA-MB-231) | GI50 (IGROV-1) | GI50 (U25-1) | GI50 (HCT-116) | GI50 (DU-145) | GI50 (A498) | GI50 (LOX-IMVI) | Diminished cytotoxicity (summary in the conclusions) (NCI 60 cell lines) | GI50 (LnCap) | Concentration achieving the desired therapeutic effect (90% kill of tumor cells) (HCT-116 cells; HCT-116, clonogenic, continuous exposure for seven days) | Toxicity to HCT-116 cells in the clonogenic assay (HCT-116 cells; two hour and 24 hour dosing schedules) | GI50 (PC-3) | GI50 (TSU-Pr1)
(+)-jasplakinolide V [Compound 13] | 60 nM | 90 nM | 30 nM | 40 nM | 70 nM | 80 nM | 10 nM | 7 nM |  |  |  |  |  | 
(+)-jasplakinolide Z1 [Compound 9] | 120 nM | 2500 nM | 1760 nM | 600 nM |  | 18800 nM |  | 280 nM |  |  |  |  |  | 
(+)-jasplakinolide Z3 [Compound 11] | 40 nM | 740 nM | 170 nM | 50 nM |  | 3720 nM | 440 nM | 160 nM |  |  |  |  |  | 
jasplakinolide B [Compound 3, reference compound] |  | 40 nM |  |  |  |  |  |  |  |  |  |  |  | 
jasplakinolide J [Compound 5] | 610 nM | 260 nM | 20 nM | 50 nM | 110 nM | 290 nM | 210 nM | 30 nM | ≈ 1 uM |  |  |  |  | 
jasplakinolide Q [Compound 7] | 160 nM | 70 nM | 10 nM | 30 nM | 50 nM | 100 nM | 80 nM | 20 nM |  |  |  |  |  | 
jasplakinolide [Compound 1] |  |  |  |  |  |  |  |  |  | 41 nM | 0.004 µM | Little toxicity | 65 nM | 170 nM

Reference: paper PMC3070360 (Journal of natural products, 2011)
